From patent publication US20140193510A1, “Polymer-Agent Conjugates, Particles, Compositions, and Related Methods of Use” (CERULEAN PHARMA INC., priority 2009, published 2014)
Values joined by “and” are separate entries in the source; they are usually repeats but may differ in a detail not shown here. Equal entries are not always repeated. “Also recorded” adds a separate entry of the source. Where two headings read alike, the source gives them in different places.

Legend:
[1] = Body weight changes in A2780 tumor-bearing mice (Example 42); format: in vivo, CD-1 nude mice; settings: for % of initial body weight: Day 36
Protocol: This formulation was made within 30 minutes of administration to mice.
The treatments were administered 2 times, on Day 8 and Day 15 (weekly×2 injections) for n=8 mice per group. […] On Day 50, the study was ended for all remaining mice. When removed from the study, mice were euthanized by CO2 inhalation.

B16.F10 cells [2] = assay: Efficacy in B16.F10 murine melanoma model (Example 43); format: in vivo, C57BL/6 mice; settings: q4dq3dx3 (three injections over 2 weeks), 15 mg/kg IV
Protocol: Refer to table for detailed description of formulations.
Tumor volume was calculated with the following equation: (width×width×length)/2 mm^3.

[3] = Tolerability (body weight) in B16.F10 murine melanoma model (Example 43); format: in vivo, C57BL/6 mice
[4] = Body weight in HCT-116 tumor bearing mice (Example 44); format: in vivo, CD-1 nude mice; settings: 30 mg/kg IV
Protocol: The treatments were administered IV into the tail vein at the respective dose volumes (refer to previous paragraph), beginning on post-implantation Day 13, when the mean tumor volume was 131 mm^3.

[5] = Body weight and ataxia in SK-OV-3 tumor-bearing mice (Example 45); format: in vivo, CD-1 nude mice; settings: weekly x two injections
MDA-MB-435 cells = assay: In vivo efficacy, MDA-MB-435 melanoma human xenograft model (Example 46); parameters: species or system CD-1 nude mice; settings: as of Day 76, weekly x two injections
Protocol: MDA-MB-435 cells were grown in culture to confluency in RPMI medium containing 10% FBS and 1% penicillin/streptomycin and then resuspended in RPMI (passage 4) for implantation into mice. A volume of 0.1 mL containing 4.0×10^6 cells MDA-MB-435 cells were implanted into the mammary gland of female CD-1 nude mice on Day 1.

[6] = Tolerability in normal non-tumor-bearing mice (body weight, CBC, serum chemistry, ataxia, sciatic nerve; Example 47); format: in vivo, C57BL/6 mice; settings: for ataxia: n=5
Protocol: Treatments were administered intravenously on a q7dx2 schedule, i.e., two treatments seven days apart (the first treatment was on Day one). The study ended on Day 14, six days after the 2nd treatment. Blood was collected for complete blood count (CBC) and serum chemistry. Leg muscles were collected so that nerve degeneration could be assessed from the sciatic nerve.

[7] = mouse, in vivo
Protocol: The stock solution was diluted further with PBS to 0.6, 1.5, 3, 4.5 and 6 mg/mL (for a corresponding dose of 6, 15, 30, 45 and 60 mg/kg) so that all the groups received the same amount of ethanol, polysorbate 80, water and PBS. […] 5) PEGylated O-acetyl-5050-PLGA nanoparticle vehicle at the highest concentration of 6 mg/mL.
The treatments were administered IV into the tail vein at a dose volume of 10 mL/kg, beginning on post-implantation Day 5, when the mean tumor volume was 55 mm^3. The treatments were administered 4 times, on Days 5, 8, 12 and 15 (biweekly×4 injections). On Day 17 post-tumor implantation, mice were euthanized by CO2 inhalation according to the procedure guideline. Blood was collected by cardiac puncture and put into ethylenediaminetetraacetic acid (EDTA) or serum separation blood collection tubes. Whole blood was analyzed on the day of collection for CBC analyses. After the blood clotted and was centrifuged, serum was frozen immediately on dry ice for serum chemistry analyses.
Tolerability was determined by changes in body weight, expressed as a percent of the initial body weight on post-implantation Day 5. […] Other indices of toxicity, complete blood count (CBC) and serum chemistry were determined from blood collected from animals that were euthanized on Day 17 by CO2 inhalation, according to the procedure guideline.

[8] = Body weight and ataxia in MDA-MB-435 tumor-bearing mice (Example 46); settings: for ataxia: weekly x two injections
Protocol: The treatments were administered IV into the tail vein at the dose volumes stated above, beginning on post-implantation Day 21, when the mean tumor volume was 150 mm^3 or, for one group, on Day 37, when the mean tumor volume for that group was 433 mm^3.

B16.F10 cells [9] = assay: CellTiter-Glo Luminescent Cell Viability Assay (cytotoxicity of nanoparticles); format: cell-based; settings: 24, 48 and 72 hours of incubation
Protocol: B16.F10 cells, grown to 85-90% confluency in 150 cm^2 flasks (passage <30), were resuspended in media (MEM-alpha, 10% HI-FBS, 1× antibiotic-antimycotic) and added to 96-well opaque-clear bottom plates at a concentration of 1500 cells/well in 200 μL/well. The cells were incubated at 37° C. with 5% CO2 for 24 hours. The following day, serial dilutions of 2× concentrated particles and 2× concentrated free drug were made in 12-well reservoirs with media to specified concentrations. The media in the plates was replaced with 100 μL of fresh media and 100 μL of the corresponding serially diluted drug. Three sets of plates were prepared with duplicate treatments. Following 24, 48 and 72 hours of incubation at 37° C. with 5% CO2, the media in the plates was replaced with 100 μL of fresh media and 100 μL of CTG solution, and then incubated for 5 minutes on a plate shaker at room temperature set to 450 rpm and allowed to rest for 15 minutes. Viable cells were measured by luminescence using a microtiter plate reader. The data was plotted as viability vs. concentration and standardized to untreated cells.

Compound: CC(=O)O[C@@]12CO[C@@H]1C[C@H](O)[C@@]1(C)C(=O)[C@H](O)C3=C(C)[C@@H](OC(=O)[C@H](O)[C@@H](NC(=O)OC(C)(C)C)c4ccccc4)C[C@@](O)([C@@H](OC(=O)c4ccccc4)[C@H]21)C3(C)C [Free docetaxel, docetaxel]
- Maximum body weight loss ([1]; 15 mg/kg IV weekly x 2): 7%
- % of initial body weight ([1]; 15 mg/kg): 113±11%
- Maximum body weight loss ([1]; 30 mg/kg IV weekly x 2): 10%
- % of initial body weight ([1]; 30 mg/kg): 105±9%
- Tumor growth inhibition (TGI) (B16.F10 cells [2]): 90%
- Maximum body weight loss ([3]; q3dq4dx3, 15 mg/kg IV, listed as Docetaxel): 11% and 12%
- Maximum body weight loss ([3]; q4dq3dx3, 15 mg/kg IV): 11%
- Maximum body weight loss ([3]; q7dx3, 30 mg/kg IV): 11%
- Maximum body weight loss ([3]; q14dx2, 60 mg/kg IV, listed as Docetaxel): 0%
- Maximum body weight loss ([3]; q14dx2, 60 mg/kg IV, listed as docetaxel): did not show any body weight loss
- Maximum body weight loss ([3]; three times, once every week, 15 mg/kg (as worded)): 11%
- Maximum body weight loss [4]: 14%
- Maximum body weight loss ([5]; 30 mg/kg IV): 13%
- ataxia ([5]; 30 mg/kg IV): did not cause ataxia
- body weight loss ([5]; 60 mg/kg IV): greater than 20%
- TGI compared with PEGylated nanoparticles (MDA-MB-435 cells; listed as docetaxel): docetaxel at a dose of 30 mg/kg is equivalent to PEGylated nanoparticles at a dose of 60 mg/kg
- TGI compared with PEGylated nanoparticles (MDA-MB-435 cells; listed as free docetaxel): the treatment at a dose of 15 mg/kg resulted in the same TGI for free docetaxel and PEGylated nanoparticles; also recorded: At a dose of 30 mg/kg, the TGI for free docetaxel was greater than that for PEGylated nanoparticles; also recorded: At a dose of 60 mg/kg, free docetaxel was equivalent to PEGylated nanoparticles until the free drug group was removed from the study
- body weight more than the initial on Day 14 ([6]; 30 mg/kg IV q7dx2): 3%
- ataxia ([6]; 30 mg/kg IV q7dx2): 0%
- body weight more than the initial on Day 14 ([6]; 45 mg/kg IV q7dx2): 2%
- ataxia ([6]; 45 mg/kg IV q7dx2): 20%
- Neutrophil mean ([6]; 60 mg/kg IV q7dx2, Day 14): 470 cells/μL
- weight lost after the second treatment, by the end of the study ([6]; 60 mg/kg IV q7dx2, Day 14): 19%
- ataxia ([6]; 60 mg/kg IV q7dx2): 100%
- effect on serum chemistry parameters ([6]; q7dx2, Day 14): did not affect any serum chemistry parameter at doses up to 60 mg/kg
- mice observed to develop ataxia ([6]; q7dx2, n=5/group, dose in the value): no mice in the 30 mg/kg group were seen to develop ataxia or any overt signs of nerve damage; also recorded: One mouse in the 45 mg/kg group was observed to develop ataxia on Day 14; also recorded: Five out of five mice in the 60 mg/kg group was observed to develop ataxia
- effect on serum chemistry parameters [7]: did not affect any serum chemistry parameter at doses up to 30 mg/kg
- ataxia ([8]; 30 mg/kg IV): did not cause ataxia
- body weight loss ([8]; 60 mg/kg IV, Days 21 and 28 (mean tumor size 150 mm^3 at start)): greater than 20%
- ataxia ([8]; 60 mg/kg IV, listed as docetaxel): developed ataxia
- ataxia ([8]; 60 mg/kg IV, listed as free docetaxel): Ataxia was observed four days after the second treatment

Compound: docetaxel-5050 PLGA-O-acetyl
- growth of B16.F10 cells (viability) (B16.F10 cells [9]): inhibited the growth of B16.F10 cells in a dose and time dependent manner

Compound: doxorubicin 5050 PLGA amide
- growth of B16.F10 cells (viability) (B16.F10 cells [9]): inhibited the growth of B16.F10 cells in a dose and time dependent manner

Compound: paclitaxel-5050 PLGA-O-acetyl
- growth of B16.F10 cells (viability) (B16.F10 cells [9]): inhibited the growth of B16.F10 cells in a dose and time dependent manner
